# Measured values taken from patent US4623662A, “Antiatherosclerotic ureas and thioureas” (American Cyanamid Company, priority 1985, dated 1986).
# Like-named read-outs stand apart in the source and are kept apart here.
# Key:
# cholesterol absorption = assay: Inhibition of cholesterol absorption in rats fed 1% cholesterol:0.5% cholic acid diet; assay type: in vivo, male Sprague-Dawley rats; conditions: po, 336 h, rat, 2 weeks; for response vs control in vivo at 0.03 %: dose .03% of the diet; for response vs control in vivo at 0.01 %: dose .01% of the diet
# Procedure: Inhibition of cholesterol absorption was determined by feeding male Sprague-Dawley rats, weighing 150-170 g, a 1% cholesterol:0.5% cholic acid diet for 2 weeks. The diet also contained compounds being tested at a dose of 0.001, 0.003, 0.01, or 0.03% of the diet. Control rats were fed the same diet without any compound. At the end of the test, the rats were sacrificed by decapitation. Blood was collected, centrifuged at […] for 10 minutes at 4° C.; and the serum was then analyzed for cholesterol and triglycerides enzymatically by the method of Trinder, P., Analyst, 77, 321 (1952) on a Centrifichem 400 analyzer. Livers were removed, a 0.4 g sample was taken from the center of the large lobe, and the sample was subjected to saponification using 25% saturated potassium hydroxide in ethanol. The resulting neutral sterols were extracted with petroleum ether and the extract analyzed for cholesterol. The effectiveness of the compound in inhibiting cholesterol absorption was measured by the lowering of either serum cholesterol or liver cholesterol relative the values for control rats.
# Compounds which produced statistically significant inhibition of cholesterol absorption are considered to be active. Liver sterol (LS) and serum sterol (SS) values are expressed as a percentage of control values.
# [1] = target: T1, fatty acyl CoA: cholesterol acyl transferase (ACAT) (Rattus norvegicus, UniProt O70536); assay: Inhibition of fatty acyl CoA:cholesterol acyl transferase (ACAT), rat adrenal enzyme; assay type: biochemical; conditions: for IC50: several concentrations
# T1 construct: The supernatant, containing the microsomal fraction, served as the source of the cholesterol-esterifying enzyme; from tissue; host or cells: rat adrenals, supernatant of 1,000 x g centrifugation containing the microsomal fraction
# T1 sequence (O70536 1-545): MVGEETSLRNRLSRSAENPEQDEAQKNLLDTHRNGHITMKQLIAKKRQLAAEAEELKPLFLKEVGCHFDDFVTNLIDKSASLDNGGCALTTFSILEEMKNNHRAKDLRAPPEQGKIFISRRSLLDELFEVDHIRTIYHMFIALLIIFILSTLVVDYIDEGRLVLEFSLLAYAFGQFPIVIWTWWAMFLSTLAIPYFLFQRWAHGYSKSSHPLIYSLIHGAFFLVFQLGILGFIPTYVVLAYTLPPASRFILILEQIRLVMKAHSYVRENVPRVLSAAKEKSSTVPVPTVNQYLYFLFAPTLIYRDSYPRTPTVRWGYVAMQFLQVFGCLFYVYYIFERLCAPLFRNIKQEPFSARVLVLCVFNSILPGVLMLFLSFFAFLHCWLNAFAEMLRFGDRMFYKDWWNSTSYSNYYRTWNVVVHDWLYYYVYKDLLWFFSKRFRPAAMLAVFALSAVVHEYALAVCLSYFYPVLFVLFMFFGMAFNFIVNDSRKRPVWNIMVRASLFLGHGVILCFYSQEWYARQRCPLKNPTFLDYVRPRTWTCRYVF
# Summary of the method: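 Enzyme source was the microsomal supernatant of rat adrenal homogenate (0.2M potassium phosphate, pH 7.4) with BSA, preincubated with compound (5.2 μg/ml final for single-point) for 10 min at 37° C. Then [14C]oleoyl CoA added, 10 min at 37° C. TLC-separated cholesteryl ester was counted; percent inhibition versus control, IC50 from several concentrations.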
# [2] = read-out: LS (liver sterol), percentage of control values
# [3] = read-out: SS (serum sterol), percentage of control values
# [4] = rat adrenal ACAT, final concentration 5.2 μg/ml, read-out: % Inhibition
"inhibition at 5.2 µg/mL [1, 4]",IC50 ([1]; rat adrenal ACAT),SMILES,response vs control in vivo at 0.03 % (cholesterol absorption; [2]),response vs control in vivo at 0.03 % (cholesterol absorption; [3]),inhibition at 5.2 µg/mL [1],response vs control in vivo at 0.01 % (cholesterol absorption; [2]),response vs control in vivo at 0.01 % (cholesterol absorption; [3])
,,"Cc1cc(Cl)ccc1NC(=O)N(CCC(C)(C)C)Cc1ccc(Cl)cc1 [1-(3,3-Dimethylbutyl)-1-(4-chlorobenzyl)-3-(4-chloro-2-methylphenyl)urea]",60%,50%,90%,,
,530 nM,"CC(C)CCN(Cc1ccc(C(C)C)cc1)C(=O)Nc1c(F)cc(F)cc1F [1-(Isopentyl)-1-[4-(isopropyl)benzyl]-3-(2,4,6-trifluorophenyl)urea]",35%,31%,,,
,,CCCCCCCN(Cc1ccc(CCCC)cc1)C(=O)Nc1ccc(Cl)cc1C(F)(F)F [1-(n-Heptyl)-1-(4-n-butylbenzyl)-3-(2-trifluoromethyl-4-chlorophenyl)urea],47%,63%,90%,,
,,"CC(C)(C)CCN(Cc1cccs1)C(=O)Nc1c(Cl)cc(Cl)cc1Cl [1-(3,3-Dimethylbutyl)-1-(2-thienylmethyl)-3-(2,4,6-trichlorophenyl)urea]",56%,58%,90%,,
,,"CCCCOc1ccc(CN(CCC(C)(C)C)C(=O)Nc2c(Cl)cc(Cl)cc2Cl)cc1 [1-(3,3-Dimethylbutyl)-1-[4-(n-butoxy)benzyl]-3-(2,4,6-trichlorophenyl)urea]",20%,52%,90%,,
,,"CCCCCCCN(Cc1cccs1)C(=O)Nc1c(Cl)cc(Cl)cc1Cl [1-Heptyl-1-(2-thienylmethyl)-3-(2,4,6-trichlorophenyl)urea]",28%,56%,90%,,
,,CCCCCCCN(CCc1ccccc1)C(=O)Nc1ccc(Cl)cc1C(F)(F)F [1-(n-Heptyl)-1-(2-phenylethyl)-3-(2-trifluoromethyl-4-chlorophenyl)urea],80%,79%,88.3%,,
94%,,Cc1cc(Cl)ccc1NC(=O)N(Cc1ccc(Cl)cc1)Cc1cccc2ccccc12 [1-(4-Chlorobenzyl)-1-(1-naphthylmethyl)-3-(2-methyl-4-chlorophenyl)urea],17%,35%,,,
93.8%,,CCCCCCCN(CCc1ccccc1)C(=O)Nc1ccc(Cl)cc1C [1-(n-Heptyl)-1-(2-phenylethyl)-3-(2-methyl-4-chlorophenyl)urea],49%,66%,,,
96.1%,,"CCCCCCCN(Cc1ccco1)C(=O)Nc1c(Cl)cc(Cl)cc1Cl [1-(2-Furanylmethyl)-1-heptyl-3-(2,4,6-trichlorophenyl)urea]",34%,37%,,,
,,"Cc1cc(Cl)ccc1NC(=O)N(CCC(C)(C)C)Cc1ccccc1 [1-(3,3-Dimethylbutyl)-1-benzyl-3-(4-chloro-2-methylphenyl)urea]",51%,64%,90%,,
,,"Cc1cc(Cl)ccc1NC(=O)N(CCC(C)(C)C)Cc1ccc(CC(C)(C)C)cc1 [1-(3,3-Dimethylbutyl)-1-[4-(2,2-dimethylpropyl)benzyl]-3-(4-chloro-2-methylphenyl)urea]",20%,51%,90%,,
,,"Cc1cc(NC(=O)N(CCC(C)(C)C)Cc2ccccc2)c(C)cc1Cl [1-(3,3-Dimethylbutyl)-1-(benzyl)-3-(4-chloro-2,5-dimethylphenyl)urea]",30%,55%,90%,,
92.4%,,CCCCCCCN(Cc1ccc(CCCC)cc1)C(=O)Nc1ccc(C(=O)OCC)cc1 [1-(n-Heptyl)-1-(4-n-butylbenzyl)-3-(4-carboethoxyphenyl)urea],84%,88%,,,
,,"CCCCOc1ccc(CN(CCC(C)(C)C)C(=O)Nc2ccc(F)cc2F)cc1 [1-(3,3-Dimethylbutyl)-1-[4-(n-butoxy)benzyl]-3-(2,4-difluorophenyl)urea]",32%,42%,90%,,
,130 nM,"CCCCCCCN(Cc1ccc(CCC(C)C)cc1)C(=O)Nc1c(C)cc(Cl)cc1C [1-(n-Heptyl)-1-[4-(isopentyl)benzyl]-3-(4-chloro-2,6-dimethylphenyl)urea]",,,,10%,17%
95.3%,,"CCCCCCCN(Cc1ccc(CCCC)cc1)C(=O)Nc1cc(C)c(C)cc1C [1-(n-Heptyl)-1-(4-n-butylbenzyl)-3-(2,4,5-trimethylphenyl)urea]",10%,33%,,,
92.9%,,"Cc1ccc(NC(=O)N(Cc2ccc(C)c(C)c2)Cc2ccccc2Cl)c(C)c1 [1-(3,4-Dimethylbenzyl)-1-(2-chlorobenzyl)-3-(2,4-dimethylphenyl)urea]",15%,44%,,,
93.8%,,CCCCCCCN(Cc1ccc(CCCC)cc1)C(=O)Nc1cccc(C)c1 [1-(n-Heptyl)-1-(4-n-butylbenzyl)-3-(3-methylphenyl)urea],42%,49%,,,
,,"CCCCCCCN(Cc1cccs1)C(=O)Nc1cc(C)c(C)cc1C [1-Heptyl-1-(2-thienylmethyl)-3-(2,4,5-trimethylphenyl)urea]",25%,54%,90%,,
,,"CC(C)(C)CCN(Cc1ccccc1)C(=O)Nc1ccc(F)cc1F [1-(3,3-Dimethylbutyl)-1-benzyl-3-(2,4-difluorophenyl)urea]",70%,71%,90%,,
87.8%,,"CCCCN(Cc1ccccc1)C(=O)Nc1cc(Cl)c(NC(=O)C(F)(F)F)c(Cl)c1 [1-(n-Butyl)-1-benzyl-3-(4-trifluoroacetylamino-3,5-dichlorophenyl)urea]",,,,,
92.3%,,CCCCN(Cc1ccccc1)C(=O)Nc1cccc(C)c1 [1-Benzyl-1-( -n-butyl)-3-(3-methylphenyl)urea],,,,,
81%,,CCCCCOc1ccc(CN(Cc2ccc(CCCCC)cc2)C(=O)Nc2ccc(Cl)cc2C(F)(F)F)cc1 [1-(4-n-Pentylbenzyl)-1-(4-n-pentyloxybenzyl)-3-(2-trifluoromethyl-4-chlorophenyl)urea],,,,,

SMILES,"inhibition at 5.2 µg/mL [1, 4]",IC50 ([1]; rat adrenal ACAT),response vs control in vivo at 0.03 % (cholesterol absorption; [2]),response vs control in vivo at 0.03 % (cholesterol absorption; [3]),inhibition at 5.2 µg/mL [1],response vs control in vivo at 0.01 % (cholesterol absorption; [2]),response vs control in vivo at 0.01 % (cholesterol absorption; [3])
CCCCCCCN(Cc1ccc(OCCCC)cc1)C(=O)Nc1cccc(C(F)(F)F)c1 [1-(n-Heptyl)-1-(4-n-butoxybenzyl)-3-(3-trifluoromethylphenyl)urea],82.4%,,86%,80%,,,
"CCCCOc1ccc(CN(Cc2ccccc2)C(=O)Nc2ccc(Cl)cc2Cl)cc1 [1-Benzyl-1-(4-n-butoxybenzyl)-3-(2,4-dichlorophenyl)urea]",80%,,49%,53%,,,
"CCCCCCCN(Cc1ccc(OCCCC)cc1)C(=O)Nc1ccc(F)cc1F [1-(n-Heptyl)-1-(4-n-butoxybenzyl)-3-(2,4-difluorophenyl)urea]",82.7%,,25%,63%,,,
